Laboratory results published in the CheMixHub drug solubility set.

Assay: xn = mol fraction of the nth substance listed, in the solute-free solvent

Cc1c(Br)cccc1C(=O)O + CN(C)C=O + CC#N
solubility (g/100 g solution)
Details | x2 = 0.106 | x2 = 0.224 | x2 = 0.355 | x2 = 0.502 | x2 = 0.668 | x2 = 0.858
278.15 K | 6.4 | 10.6 | 14.2 | 17.6 | 20.8 | 23.6
283.15 K | 7.69 | 12.4 | 16.8 | 20.7 | 24.4 | 25.8
288.15 K | 8.95 | 14.9 | 19.8 | 24.3 | 28.2 | 32
293.15 K | 11 | 17.3 | 23 | 28 | 32.5 | 36.6
298.15 K | 12.6 | 20.2 | 26.5 | 32.1 | 37.1 | 41.6
303.15 K | 14.5 | 23.3 | 30.5 | 36.5 | 42.1 | 47.1
308.15 K | 17.1 | 26.8 | 34.4 | 41.3 | 47.2 | 52.7
313.15 K | 19.5 | 30.5 | 38.9 | 46.3 | 52.7 | 58.5
318.15 K | 22.6 | 34.5 | 43.6 | 51.4 | 58.1 | 64.3
323.15 K | 26 | 38.8 | 48.6 | 56.7 | 63.8 | 70.3
328.15 K | 29.2 | 43.1 | 53.5 | 62 | 69.3 | 76

Nc1[nH]c(=O)ncc1F + CN(C)C=O + CC(C)O
solubility (g/100 g solution)
Details | 283.15 K | 288.15 K | 293.15 K | 298.15 K | 303.15 K | 308.15 K | 313.15 K | 318.15 K | 323.15 K
x2 = 0.0837 | 0.0457 | 0.057 | 0.0702 | 0.0871 | 0.105 | 0.126 | 0.149 | 0.174 | 0.203
x2 = 0.1705 | 0.0578 | 0.0715 | 0.0887 | 0.107 | 0.128 | 0.152 | 0.178 | 0.209 | 0.245
x2 = 0.2605 | 0.0731 | 0.0892 | 0.107 | 0.13 | 0.155 | 0.183 | 0.214 | 0.248 | 0.285
x2 = 0.354 | 0.0896 | 0.107 | 0.127 | 0.153 | 0.182 | 0.214 | 0.249 | 0.288 | 0.333
x2 = 0.4512 | 0.106 | 0.126 | 0.151 | 0.18 | 0.213 | 0.248 | 0.284 | 0.327 | 0.376
x2 = 0.5522 | 0.121 | 0.143 | 0.17 | 0.203 | 0.236 | 0.273 | 0.315 | 0.36 | 0.413
x2 = 0.6573 | 0.137 | 0.16 | 0.189 | 0.221 | 0.258 | 0.298 | 0.342 | 0.391 | 0.447
x2 = 0.7668 | 0.153 | 0.18 | 0.209 | 0.242 | 0.281 | 0.322 | 0.369 | 0.426 | 0.484
x2 = 0.8809 | 0.173 | 0.201 | 0.23 | 0.267 | 0.306 | 0.351 | 0.402 | 0.46 | 0.524
